Test results taken from ChEMBL document CHEMBL1201862, “PubChem BioAssay data set” (2004).
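Briefly, cells in 96-well plates were exposed to five compound concentrations for 48 h, and endpoints were estimated by linear interpolation. GI50 is the concentration that inhibits growth by half.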 Activity calls are given as the source filed them. Rule as the data show it: active = GI50 up to about 1.1 µM and inactive = higher.

Key:
Test in all cases: NCI anticancer screen, dose series, 48 h
786-0 = system: 786-0
A549 = system: A549
SW-620 = system: SW-620
SF-295 = system: SF-295
NCI/ADR-RES = system: NCI/ADR-RES
HCT-116 = system: HCT-116
Hs-578T = system: Hs-578T
COLO 205 = system: COLO 205
NCI-H23 = system: NCI-H23
SK-MEL-28 = system: SK-MEL-28
UO-31 = system: UO-31
CCRF-CEM = system: CCRF-CEM
MDA-N = system: MDA-N
SK-MEL-2 = system: SK-MEL-2
RPMI-8226 = system: RPMI-8226
NCI-H460 = system: NCI-H460
CAKI-1 = system: CAKI-1
HOP-92 = system: HOP-92
T47D = system: T47D
SK-OV-3 = system: SK-OV-3
MDA-MB-435 = system: MDA-MB-435
DU-145 = system: DU-145
RXF 393 = system: RXF 393
EKVX = system: EKVX
MCF7 = system: MCF7
BT-549 = system: BT-549
MDA-MB-231 = system: MDA-MB-231
IGROV-1 = system: IGROV-1
SNB-75 = system: SNB-75
A498 = system: A498
SR = system: SR
Malme-3M = system: Malme-3M
M14 = system: M14
HL-60 = system: HL-60
HOP-62 = system: HOP-62
OVCAR-8 = system: OVCAR-8
OVCAR-5 = system: OVCAR-5
SNB-19 = system: SNB-19
HT-29 = system: HT-29
MOLT-4 = system: MOLT-4
NCI-H522 = system: NCI-H522
SN12C = system: SN12C
OVCAR-4 = system: OVCAR-4
HCC 2998 = system: HCC 2998
SK-MEL-5 = system: SK-MEL-5
PC-3 = system: PC-3
LOX IMVI = system: LOX IMVI
K562 = system: K562
KM12 = system: KM12
UACC-257 = system: UACC-257
TK-10 = system: TK-10
ACHN = system: ACHN
OVCAR-3 = system: OVCAR-3
U-251 = system: U-251
UACC-62 = system: UACC-62
HCT-15 = system: HCT-15
SF-539 = system: SF-539
NCI-H226 = system: NCI-H226
SF-268 = system: SF-268

`O=[N+]([O-])c1ccc2c(c1)nc(Cc1ccc(Cl)cc1)n2C[C@@H]1CCCN2CCCCC12` (stereo not given in full) was tested, and the GI50 (786-0) was 11.8 µM (inactive), the GI50 (A549) was 19.2 µM (inactive) and the GI50 (SW-620) was 20.8 µM (inactive). The GI50 (SF-295) was 15.3 µM (inactive), the GI50 (NCI/ADR-RES) was 13.9 µM (inactive) and the GI50 (HCT-116) was 10.5 µM (inactive). The GI50 (Hs-578T) was 13.5 µM (inactive), the GI50 (COLO 205) was 10.4 µM (inactive) and the GI50 (NCI-H23) was 14.9 µM (inactive). The GI50 (SK-MEL-28) was 14.6 µM (inactive), the GI50 (UO-31) was 1.58 µM (inactive) and the GI50 (CCRF-CEM) was 11.8 µM (inactive). The GI50 (MDA-N) was 12.9 µM (inactive), the GI50 (SK-MEL-2) was 15.8 µM (inactive) and the GI50 (RPMI-8226) was 26.3 µM (inactive). The GI50 (NCI-H460) was 14 µM (inactive), the GI50 (CAKI-1) was 15.2 µM (inactive) and the GI50 (HOP-92) was 6.47 µM (inactive). For the same molecule, the GI50 (T47D) was 16.7 µM (inactive), the GI50 (SK-OV-3) was 18.9 µM (inactive) and the GI50 (MDA-MB-435) was 14.3 µM (inactive). The GI50 (DU-145) was 17.7 µM (inactive), the GI50 (RXF 393) was 11.6 µM (inactive) and the GI50 (EKVX) was 8.39 µM (inactive). The GI50 (MCF7) was 0.54 µM (active), the GI50 (BT-549) was 13 µM (inactive) and the GI50 (MDA-MB-231) was 16.5 µM (inactive). The GI50 (IGROV-1) was 9.84 µM (inactive), the GI50 (SNB-75) was 15 µM (inactive) and the GI50 (A498) was 6.05 µM (inactive). For the same molecule, the GI50 (SR) was 22.7 µM (inactive), the GI50 (Malme-3M) was 9.16 µM (inactive) and the GI50 (M14) was 9.79 µM (inactive). For the same molecule, the GI50 (HL-60) was 28.9 µM (inactive), the GI50 (HOP-62) was 20.5 µM (inactive) and the GI50 (OVCAR-8) was 15.1 µM (inactive). The GI50 (OVCAR-5) was 15.5 µM (inactive), the GI50 (SNB-19) was 22.8 µM (inactive) and the GI50 (HT-29) was 8.59 µM (inactive). For the same molecule, the GI50 (MOLT-4) was 10.9 µM (inactive), the GI50 (NCI-H522) was 12.3 µM (inactive) and the GI50 (SN12C) was 13.6 µM (inactive). The GI50 (OVCAR-4) was 9.86 µM (inactive), the GI50 (HCC 2998) was 7.64 µM (inactive) and the GI50 (SK-MEL-5) was 14.8 µM (inactive). For the same molecule, the GI50 (PC-3) was 20.2 µM (inactive), the GI50 (LOX IMVI) was 13.7 µM (inactive) and the GI50 (K562) was 15 µM (inactive). For the same molecule, the GI50 (KM12) was 13.5 µM (inactive), the GI50 (UACC-257) was 15.3 µM (inactive) and the GI50 (TK-10) was 17.6 µM (inactive). For the same molecule, the GI50 (ACHN) was 13.4 µM (inactive), the GI50 (OVCAR-3) was 15.5 µM (inactive) and the GI50 (U-251) was 18.6 µM (inactive). The GI50 (UACC-62) was 15.2 µM (inactive), the GI50 (HCT-15) was 16 µM and the GI50 (SF-539) was 18.4 µM (inactive). The GI50 (NCI-H226) was 16.6 µM (inactive).
`COC(=O)/C(C#N)=C(/NCCN)Nc1ccccc1` was tested, and the GI50 (786-0) was > 100 µM (inactive), the GI50 (A549) was > 100 µM (inactive) and the GI50 (SW-620) was > 100 µM (inactive). The GI50 (SF-295) was > 100 µM (inactive), the GI50 (NCI/ADR-RES) was > 100 µM (inactive) and the GI50 (HCT-116) was > 100 µM (inactive). The GI50 (Hs-578T) was > 100 µM (inactive), the GI50 (COLO 205) was > 100 µM (inactive) and the GI50 (NCI-H23) was > 100 µM (inactive). For the same molecule, the GI50 (SK-MEL-28) was > 100 µM (inactive), the GI50 (UO-31) was > 100 µM (inactive) and the GI50 (SF-268) was > 100 µM (inactive). For the same molecule, the GI50 (MDA-N) was > 100 µM (inactive), the GI50 (SK-MEL-2) was > 100 µM (inactive) and the GI50 (RPMI-8226) was > 100 µM (inactive). The GI50 (NCI-H460) was > 100 µM (inactive), the GI50 (CAKI-1) was > 100 µM (inactive) and the GI50 (HOP-92) was > 100 µM (inactive). For the same molecule, the GI50 (T47D) was > 100 µM (inactive), the GI50 (SK-OV-3) was > 100 µM (inactive) and the GI50 (MDA-MB-435) was > 100 µM (inactive). For the same molecule, the GI50 (DU-145) was > 100 µM (inactive), the GI50 (RXF 393) was > 100 µM (inactive) and the GI50 (EKVX) was > 100 µM (inactive). The GI50 (MCF7) was > 100 µM (inactive), the GI50 (BT-549) was > 100 µM (inactive) and the GI50 (MDA-MB-231) was > 100 µM (inactive). The GI50 (IGROV-1) was > 100 µM (inactive), the GI50 (SNB-75) was 57.3 µM (inactive) and the GI50 (A498) was > 100 µM (inactive). For the same molecule, the GI50 (SR) was > 100 µM (inactive), the GI50 (Malme-3M) was > 100 µM (inactive) and the GI50 (M14) was > 100 µM (inactive). For the same molecule, the GI50 (HL-60) was > 100 µM (inactive), the GI50 (HOP-62) was > 100 µM (inactive) and the GI50 (OVCAR-8) was > 100 µM (inactive). The GI50 (OVCAR-5) was > 100 µM (inactive), the GI50 (SNB-19) was > 100 µM (inactive) and the GI50 (HT-29) was > 100 µM (inactive). The GI50 (MOLT-4) was > 100 µM (inactive), the GI50 (NCI-H522) was > 100 µM (inactive) and the GI50 (SN12C) was > 100 µM (inactive). The GI50 (OVCAR-4) was > 100 µM (inactive), the GI50 (HCC 2998) was > 100 µM (inactive) and the GI50 (SK-MEL-5) was > 100 µM (inactive). For the same molecule, the GI50 (PC-3) was > 100 µM (inactive), the GI50 (LOX IMVI) was > 100 µM (inactive) and the GI50 (K562) was > 100 µM (inactive). The GI50 (UACC-257) was > 100 µM (inactive), the GI50 (TK-10) was > 100 µM (inactive) and the GI50 (ACHN) was > 100 µM (inactive). For the same molecule, the GI50 (OVCAR-3) was > 100 µM (inactive), the GI50 (U-251) was > 100 µM (inactive) and the GI50 (HCT-15) was greater than 100 µM. For the same molecule, the GI50 (SF-539) was > 100 µM (inactive) and the GI50 (NCI-H226) was > 100 µM (inactive).
For `O=c1[nH]cnc2c1ncn2[C@@H]1C[C@@H]1CO`, the GI50 (786-0) was > 100 µM (inactive), the GI50 (A549) was > 100 µM (inactive) and the GI50 (SW-620) was > 100 µM (inactive). For the same molecule, the GI50 (NCI/ADR-RES) was > 100 µM (inactive), the GI50 (HCT-116) was > 100 µM (inactive) and the GI50 (Hs-578T) was 6.22 µM (inactive). The GI50 (COLO 205) was > 100 µM (inactive), the GI50 (NCI-H23) was > 100 µM (inactive) and the GI50 (SK-MEL-28) was > 100 µM (inactive). The GI50 (UO-31) was > 100 µM (inactive), the GI50 (SF-268) was > 100 µM (inactive) and the GI50 (CCRF-CEM) was > 100 µM (inactive). For the same molecule, the GI50 (MDA-N) was > 100 µM (inactive), the GI50 (SK-MEL-2) was > 100 µM (inactive) and the GI50 (RPMI-8226) was > 10 µM (inactive). The GI50 (NCI-H460) was > 100 µM (inactive), the GI50 (CAKI-1) was > 100 µM (inactive) and the GI50 (HOP-92) was > 100 µM (inactive). For the same molecule, the GI50 (T47D) was > 100 µM (inactive), the GI50 (MDA-MB-435) was > 100 µM (inactive) and the GI50 (DU-145) was > 100 µM (inactive). For the same molecule, the GI50 (RXF 393) was > 100 µM (inactive), the GI50 (EKVX) was > 100 µM (inactive) and the GI50 (MCF7) was > 100 µM (inactive). The GI50 (BT-549) was > 100 µM (inactive), the GI50 (MDA-MB-231) was > 100 µM (inactive) and the GI50 (IGROV-1) was > 100 µM (inactive). The GI50 (SNB-75) was > 100 µM (inactive), the GI50 (A498) was > 10 µM (inactive) and the GI50 (SR) was > 100 µM (inactive). For the same molecule, the GI50 (Malme-3M) was > 100 µM (inactive), the GI50 (M14) was > 100 µM (inactive) and the GI50 (HL-60) was > 100 µM (inactive). For the same molecule, the GI50 (HOP-62) was > 100 µM (inactive), the GI50 (OVCAR-8) was > 100 µM (inactive) and the GI50 (OVCAR-5) was > 100 µM (inactive). The GI50 (SNB-19) was > 100 µM (inactive), the GI50 (HT-29) was > 100 µM (inactive) and the GI50 (MOLT-4) was > 100 µM (inactive). For the same molecule, the GI50 (NCI-H522) was > 100 µM (inactive), the GI50 (SN12C) was > 100 µM (inactive) and the GI50 (OVCAR-4) was > 100 µM (inactive). The GI50 (HCC 2998) was > 100 µM (inactive), the GI50 (SK-MEL-5) was > 100 µM (inactive) and the GI50 (PC-3) was > 100 µM (inactive). For the same molecule, the GI50 (LOX IMVI) was > 100 µM (inactive), the GI50 (K562) was > 100 µM (inactive) and the GI50 (KM12) was > 100 µM (inactive). The GI50 (UACC-257) was > 100 µM (inactive), the GI50 (TK-10) was > 100 µM (inactive) and the GI50 (ACHN) was > 100 µM (inactive). For the same molecule, the GI50 (U-251) was > 100 µM (inactive), the GI50 (UACC-62) was > 100 µM (inactive) and the GI50 (HCT-15) was greater than 100 µM. The GI50 (SF-539) was > 100 µM (inactive) and the GI50 (NCI-H226) was > 100 µM (inactive).
